Data as given in PubChem BioAssay (NCI).
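1) Cells in 96-well plates. 2) Compound, 48 h, 5 concentrations. 3) Linear interpolation between surrounding doses. 4) Unreached endpoint = highest concentration. At the TGI there is no net growth.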

How the values were obtained:
Assay in all cases: NCI anticancer screen, dose series, 48 h
ACHN renal = system: ACHN renal
DMS 273 small cell lung = system: DMS 273 small cell lung
K-562 leukemia = system: K-562 leukemia
KM20L2 colon = system: KM20L2 colon
LOX IMVI melanoma = system: LOX IMVI melanoma
M19-MEL melanoma = system: M19-MEL melanoma
NCI-H23 lung = system: NCI-H23 lung
OVCAR-8 ovarian = system: OVCAR-8 ovarian
SF-539 CNS = system: SF-539 CNS
SNB-78 CNS = system: SNB-78 CNS
U251 CNS = system: U251 CNS
UO-31 renal = system: UO-31 renal
MCF7 breast = system: MCF7 breast
OVCAR-5 ovarian = system: OVCAR-5 ovarian
T-47D breast = system: T-47D breast

| Compound | TGI (ACHN renal) [µM] | TGI (DMS 273 small cell lung) [µM] | TGI (K-562 leukemia) [µM] | TGI (KM20L2 colon) [µM] | TGI (LOX IMVI melanoma) [µM] | TGI (M19-MEL melanoma) [µM] | TGI (NCI-H23 lung) [µM] | TGI (OVCAR-8 ovarian) [µM] | TGI (SF-539 CNS) [µM] | TGI (SNB-78 CNS) [µM] | TGI (U251 CNS) [µM] | TGI (UO-31 renal) [µM] | TGI (MCF7 breast) [µM] | TGI (OVCAR-5 ovarian) [µM] | TGI (T-47D breast) [µM] |
| --- | --- | --- | --- | --- | --- | --- | --- | --- | --- | --- | --- | --- | --- | --- | --- |
| Cc1c(N)c(C#N)c2n(C)c3ncccc3n2c1=O | > 100 | > 100 | > 100 | > 100 | > 100 | > 100 | > 100 | > 100 | > 100 | > 100 | > 100 | > 100 |  |  |  |
| CC(/C=C/c1ccccc1)=N\NC(=S)N/N=C(C)/C=C/c1ccccc1 | > 100 |  | > 100 |  | 28.8 |  | > 100 | 64.5 | 47.2 |  | 16.2 | > 100 | > 100 | > 100 | > 100 |
| NN/C(=N\S(=O)(=O)c1cc(S(=O)(=O)c2ccccc2)cs1)Nc1ccc(Cl)cc1 | > 100 |  | > 100 |  | 54.9 |  | > 100 | > 100 | > 100 |  | 89.6 | > 100 | > 100 | > 100 | 55.9 |
| C[C@H]1[C@H]2[C@H](C[C@@]3(C)C4=CC[C@H]5C(C)(C)[C@@H](OC6OCC(O)C(O)C6O)CC[C@@]56C[C@@]46CC[C@]23C)O[C@@]2(O)[C@@H]1OC(C)(C)[C@H]2O (stereo not given in full) | 6.35 |  | 50 |  | 6.28 |  | 3.31 | 1.81 | 6.88 |  | 5.5 | 10.2 | 1.72 | 11.5 | 1.81 |
| C[Si](C)(C)CCOCN(C(=O)C1=CCC2(CC1)OCCO2)c1ccccc1I | 44 |  | > 100 |  | > 100 |  | 39 | > 100 | 53.4 |  | > 100 | 38.9 | 34.4 | 41.9 | > 100 |
| COC1=CC(=O)C2=C(C1=O)[C@H]1CC[C@]3(C)C(=O)CC[C@H]3[C@@H]1CC2 | 79.3 |  | > 100 |  | 35.4 |  | > 100 | 33.1 | 38.1 |  | > 100 | 56.8 | 35.4 | 44.6 | 57.2 |
| O=S(=O)(N=[Se](=O)(c1ccccc1)c1ccccc1)c1ccccc1 | > 100 |  | > 100 |  | > 100 |  | > 100 | > 100 | > 100 |  | > 100 | > 100 | > 100 | > 100 | > 100 |
| COC(=O)C1=C(N)C2=C(N)Oc3ccccc3C2CC1=C(C#N)C#N (stereo not given) | 72.8 |  | 57.3 |  | 44.2 |  | 54 | 55.7 | 71.2 |  | > 100 | 53.6 | 93.1 | 81.7 | 67.1 |
| CN(C)/C=N/c1cc(=O)n(C)c(=O)n1C | > 100 |  | > 100 |  | > 100 |  | > 100 | > 100 | > 100 |  | > 100 | > 100 | > 100 | > 100 | > 100 |
